According to PubChem BioAssay (NCI):
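Cultured in 96-well plates, cells were exposed to test compound for 48 hours across five concentrations. GI50 is the concentration that inhibits growth by half. TGI: concentration producing complete growth inhibition.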

What was measured:
Assay in all cases: DTP human tumour cell line panel, 48 h
A549 NSCLC = test system: A549 NSCLC
PC-3 prostate = test system: PC-3 prostate
SNB-75 CNS = test system: SNB-75 CNS
OVCAR-5 ovarian = test system: OVCAR-5 ovarian
U251 CNS = test system: U251 CNS
KM12 colon = test system: KM12 colon
NCI-H226 lung = test system: NCI-H226 lung
ACHN renal = test system: ACHN renal
RXF 393 renal = test system: RXF 393 renal
SN12C renal = test system: SN12C renal

Compound | GI50 (A549 NSCLC) | TGI (A549 NSCLC) | GI50 (PC-3 prostate) | TGI (PC-3 prostate) | GI50 (SNB-75 CNS) | TGI (SNB-75 CNS) | GI50 (OVCAR-5 ovarian) | TGI (OVCAR-5 ovarian) | GI50 (U251 CNS) | TGI (U251 CNS) | GI50 (KM12 colon) | TGI (KM12 colon) | GI50 (NCI-H226 lung) | TGI (NCI-H226 lung) | GI50 (ACHN renal) | TGI (ACHN renal) | GI50 (RXF 393 renal) | TGI (RXF 393 renal) | GI50 (SN12C renal) | TGI (SN12C renal)
COc1ccc(N2CCN(CC(=O)N3CCN(c4nnc(-c5ccccc5)c(-c5ccccc5)n4)CC3)CC2)cc1 | 16.2 µM | > 100 µM | 5.5 µM | > 100 µM | 7.63 µM | > 100 µM | > 100 µM | > 100 µM | 6.43 µM | > 100 µM | 5.67 µM | > 100 µM | > 100 µM | > 100 µM | 7.94 µM | > 100 µM | 7.88 µM | > 61.2 µM | 8.64 µM | > 100 µM
NC1=CC(=O)C(=O)c2cccnc21 | 3.55 µM | 15.5 µM | 11.2 µM | 49.2 µM | 3.02 µM | 15.3 µM | 17.8 µM | 34.3 µM | 3.92 µM | 15.4 µM | 12 µM | 25.8 µM | 14.7 µM | 42.5 µM | 6.73 µM | 19.9 µM | 14.2 µM | 27.2 µM | 3.11 µM | 13.4 µM
CC(C)(C)c1ccc(C(=O)N/N=C/c2ccc(O)cc2O)cc1 | 0.594 µM | 35 µM | 0.706 µM | 21.8 µM | 0.584 µM | 13.6 µM | 0.661 µM | 14.7 µM | 0.483 µM | 14.9 µM | 0.418 µM | 2.48 µM | 0.412 µM | 5.75 µM | 0.334 µM | 7.74 µM | 1.61 µM | 12.2 µM | 0.801 µM | 13 µM
Clc1ccccc1-c1nc2ccccc2[nH]1 | > 100 µM | > 100 µM | > 100 µM | > 100 µM | > 100 µM | > 100 µM | > 100 µM | > 100 µM | > 100 µM | > 100 µM | 85.2 µM | > 100 µM | > 100 µM | > 100 µM | > 100 µM | > 100 µM | > 100 µM | > 100 µM | > 100 µM | > 100 µM
CC12C=CC(C)(O1)C1C2c2ccccc2S1(=O)=O (stereo not given) | > 100 µM | > 100 µM | 66.8 µM | > 100 µM | 23.2 µM | > 100 µM | > 100 µM | > 100 µM | > 100 µM | > 100 µM | > 100 µM | > 100 µM | 42 µM | > 100 µM | 69.2 µM | > 100 µM | 0.637 µM | 36.9 µM | 64.4 µM | > 100 µM
COC(=O)[C@]12CC[C@@H](C)[C@H](C)[C@@H]1C1=CC[C@@H]3[C@@]4(C)C(c5ncon5)=C[C@@](C)(CO)C4=CC[C@@]3(C)[C@]1(C)CC2 | 4.48 µM | 15.5 µM | 2.1 µM | 4.7 µM | 1.62 µM | 4.33 µM | 5.2 µM | 26.8 µM | 2.02 µM | 3.84 µM | 1.98 µM | 3.99 µM | 1.99 µM | 4.4 µM | 1.9 µM | 3.56 µM | 1.75 µM | 3.33 µM | 3.05 µM | 10.6 µM
Cn1cc(-c2csc(-c3cn(CCN4CCOCC4)c4ccc(F)cc34)n2)c2cccnc21 | 3.18 µM | 17.5 µM | 2.14 µM | 6.64 µM | 2.57 µM | 50.5 µM | 4.59 µM | > 100 µM | 3.35 µM | 22.2 µM | 2.85 µM | 11.1 µM | 1.86 µM | 5.51 µM | 2.82 µM | 12.9 µM | 2.58 µM | 7.23 µM | 3.15 µM | > 100 µM
Cn1c2ccccc2c2cc(-c3ccccc3)c3c(c21)C(=O)C=CC3=O | – | > 100 µM | – | 34.8 µM | – | 67.1 µM | – | 35.2 µM | – | 39.4 µM | – | 42.2 µM | – | 76.7 µM | – | 41.3 µM | – | 31.1 µM | – | 47.2 µM
COc1ccc(/C=C/c2nc(N3CCOCC3)c3cc(F)c(F)cc3n2)cc1OC | 5.87 µM | > 100 µM | 2.66 µM | 33.9 µM | 6.14 µM | > 100 µM | 6.54 µM | > 100 µM | 5.9 µM | > 100 µM | 4.59 µM | > 100 µM | 3.07 µM | > 100 µM | 4.35 µM | > 100 µM | 5.06 µM | > 100 µM | 5.36 µM | > 100 µM
